Tests used:
Assay type in all cases: in vivo, human
[1] = test system: drug naive patients with type 2 diabetes mellitus; assay: Double-blind first line therapy clinical study: hemoglobin A1c (HbA1c); conditions: for frequency of subjects achieving glycemic target of HbA1c<7%: following 20 weeks of double-blind therapy; for glycemic response for baseline HbA1c levels >9%: initial therapy
Experimental: The dosage strengths of fixed combination product evaluated included metformin 250 mg with glyburide 1.25 mg, and metformin 500 mg with glyburide 2.5 mg. Glycemic control was assessed using Hemoglobin A1c (HbA1c), the gold-standard measure of long-term glycemic control. Mean change from baseline in HbA1c following a 20 week treatment period (4 weeks stable once daily dose, 4 week titration and 12 weeks stable dose) were compared. The treatment phase continued for an additional 12 weeks to assess durability of efficacy. This study was a 34 week, multicenter, randomized, placebo-controlled, double-blind, parallel study with an optional long-term, open-label treatment phase. The primary outcome variable for efficacy was the change from baseline in HbA1c of the two combination therapies relative to placebo following 20 weeks of randomized treatment. 2. […] Therapeutic plasma glucose response will be defined as a FPG<126 mg/dL (based on current ADA guidelines for FPG). […] Patients were drug naive or had no oral antihyperglycemic therapy for the 2 months prior to screening. […] However, recruitment continued for up to 6 months to recruit up to a maximum of 150 patients per arm to provide additional safety information. The design included 3 periods as follows: Period B began the randomized, double-blind, parallel quadruple dummy treatment phase. Eligible patients were randomized to 1 of 5 study arms which included placebo, glyburide monotherapy, metformin monotherapy, and two different dose strengths of fixed combination metformin/glyburide product (Examples 1 and 2). Subjects were maintained on once daily dosing for a 4 week period so that the contribution of the individual components of the combination product can be assessed by short term glycemic parameters. Period C was the continuation of the randomized, double-blind treatment phase. Subjects were titrated for glycemic control over the first four weeks then dose was maintained for a 24 week stable dose treatment segment. Analysis for the primary outcome, the change from baseline in HbA1c of the two combination therapies (Examples 1 and 2) relative to placebo, was assessed at week 16 of Period C which was after 20 weeks of randomized, double-blind treatment. This was done at this time as there had been adequate time for stabilization of HbA1c and for safety reasons as it was anticipated that a high number of placebo treated patients may have had to discontinue randomized study medication due to insufficient glycemic control as treatment duration was extended. […] The study remained blinded and those subjects who discontinued randomized study drug due to lack of efficacy were eligible to begin the long-term, open-label treatment phase with fixed combination product. Following completion of the single-blind lead-in phase (Period A), qualifying subjects commenced therapy in the randomized, double-blind treatment phase (Period B). […] Following completion of the 4 week stable once daily dose phase (Period B) subjects continued the same randomized therapy in the 28 week titration/stable dose treatment phase (Period C). Study medication was titrated at visits Cl, C15 and C29. Medication was dosed with the first morning meal and with the evening meal. […] After the 4 week titration segment in Period C, subjects continued on a stable dose of study medication for the remainder of Period C.

[2] = test system: drug naive patients with type 2 diabetes mellitus; assay: Double-blind first line therapy clinical study: body weight and plasma lipid profile; conditions: as glycemic control improved
Excerpt: This study was a 34 week, multicenter, randomized, placebo-controlled, double-blind, parallel study with an optional long-term, open-label treatment phase. […] Patients were drug naive or had no oral antihyperglycemic therapy for the 2 months prior to screening. […] However, recruitment continued for up to 6 months to recruit up to a maximum of 150 patients per arm to provide additional safety information. The design included 3 periods as follows: Period B began the randomized, double-blind, parallel quadruple dummy treatment phase. Eligible patients were randomized to 1 of 5 study arms which included placebo, glyburide monotherapy, metformin monotherapy, and two different dose strengths of fixed combination metformin/glyburide product (Examples 1 and 2). Subjects were maintained on once daily dosing for a 4 week period so that the contribution of the individual components of the combination product can be assessed by short term glycemic parameters. Period C was the continuation of the randomized, double-blind treatment phase. […] Analysis for the primary outcome, the change from baseline in HbA1c of the two combination therapies (Examples 1 and 2) relative to placebo, was assessed at week 16 of Period C which was after 20 weeks of randomized, double-blind treatment. […]

[3] = test system: drug naive patients with type 2 diabetes mellitus; assay: Double-blind first line therapy clinical study: post-prandial glucose (PPG) and PPG excursion; conditions: for 2-hour postprandial glucose excursion from a fasting baseline: placebo 40.3 mg/dL; for decrease in post-prandial glucose excursion: week 20
Experimental: The term “post-prandial excursion” as employed herein refers to the difference between post-prandial glucose (PPG) and fasting plasma glucose (FPG). […] The dosage strengths of fixed combination product evaluated included metformin 250 mg with glyburide 1.25 mg, and metformin 500 mg with glyburide 2.5 mg. Glycemic control was assessed using Hemoglobin A1c (HbA1c), the gold-standard measure of long-term glycemic control. Mean change from baseline in HbA1c following a 20 week treatment period (4 weeks stable once daily dose, 4 week titration and 12 weeks stable dose) were compared. The treatment phase continued for an additional 12 weeks to assess durability of efficacy. This study was a 34 week, multicenter, randomized, placebo-controlled, double-blind, parallel study with an optional long-term, open-label treatment phase. […] 3. […] Patients were drug naive or had no oral antihyperglycemic therapy for the 2 months prior to screening. […] However, recruitment continued for up to 6 months to recruit up to a maximum of 150 patients per arm to provide additional safety information. The design included 3 periods as follows: Period B began the randomized, double-blind, parallel quadruple dummy treatment phase. Eligible patients were randomized to 1 of 5 study arms which included placebo, glyburide monotherapy, metformin monotherapy, and two different dose strengths of fixed combination metformin/glyburide product (Examples 1 and 2). Subjects were maintained on once daily dosing for a 4 week period so that the contribution of the individual components of the combination product can be assessed by short term glycemic parameters. Period C was the continuation of the randomized, double-blind treatment phase. Subjects were titrated for glycemic control over the first four weeks then dose was maintained for a 24 week stable dose treatment segment. Analysis for the primary outcome, the change from baseline in HbA1c of the two combination therapies (Examples 1 and 2) relative to placebo, was assessed at week 16 of Period C which was after 20 weeks of randomized, double-blind treatment. This was done at this time as there had been adequate time for stabilization of HbA1c and for safety reasons as it was anticipated that a high number of placebo treated patients may have had to discontinue randomized study medication due to insufficient glycemic control as treatment duration was extended. […] The study remained blinded and those subjects who discontinued randomized study drug due to lack of efficacy were eligible to begin the long-term, open-label treatment phase with fixed combination product. Following completion of the single-blind lead-in phase (Period A), qualifying subjects commenced therapy in the randomized, double-blind treatment phase (Period B). […] Following completion of the 4 week stable once daily dose phase (Period B) subjects continued the same randomized therapy in the 28 week titration/stable dose treatment phase (Period C). Study medication was titrated at visits Cl, C15 and C29. Medication was dosed with the first morning meal and with the evening meal. […] After the 4 week titration segment in Period C, subjects continued on a stable dose of study medication for the remainder of Period C.

[4] = Week 20 of double-blind therapy
[5] = Week 32 of double-blind therapy

| Structure (SMILES) | mean HbA1c level [1, 4] | mean HbA1c level [1, 5] | frequency of subjects achieving glycemic target of HbA1c<7% [1] | glycemic response for baseline HbA1c levels >9% [1] | early weight gain [2] | 2-hour postprandial glucose excursion from a fasting baseline [3] | decrease in post-prandial glucose excursion [3] | postprandial glucose excursion lowering, comparison in words ([3]; evaluating the excursion rather than the absolute value) |
| --- | --- | --- | --- | --- | --- | --- | --- | --- |
| COc1ccc(Cl)cc1C(=O)NCCc1ccc(S(=O)(=O)NC(=O)NC2CCCCC2)cc1 [glyburide] | 6.64% | 6.78% | 60% | plateauing of glycemic response | 2 kg | 38.2 mg/dL | 6.8 | – |
| CN(C)C(=N)N=C(N)N [metformin] | 6.79% | 6.96% | 50% | plateauing of glycemic response | – | 29.5 mg/dL | 15.2 | better postprandial glucose lowering than glyburide and placebo |
